The results in this text go back to patent US6818644B1, “Substituted piperazine derivatives, the preparation thereof and their use as medicaments” (Boehringer Ingelheim Pharm GmbH & Co, KG, priority 1999, dated 2004).

Structures are written as SMILES.

One may read the melting point as the temperature, or range, at which the solid turns liquid. Consider `Cl.Nc1ccc(N2CCN(CCCCC3(C(=O)NCC(F)(F)F)c4ccccc4-c4ccccc43)CC2)cc1`, for which the melting point is more than 270 °C.

In turn, `O=C(NCC(F)(F)F)C1(CCCCN2CCN(c3ccc(-c4ccccc4)cc3)CC2)c2ccccc2-c2ccccc21` [Example 3, 9-[4-(4-biphenyl-4-yl-piperazin-1-yl)-butyl]-9H-fluorene-9-carboxylic acid-(2,2,2-trifluoroethyl)-amide] came in with a melting point of 209 to 211 °C.

As to `O=C(NCC(F)(F)F)C1(CCCCN2CCN(c3ccc(Cl)cc3)CC2)c2ccccc2-c2ccccc21` [Example 4, 9-{4-[4-(4-Chloro-phenyl)-piperazin-1-yl]-butyl}-9H-fluorene-9-carboxylic acid-(2,2,2-trifluoroethyl)-amide], the melting point was determined as 166 °C.

`O=C(NCC(F)(F)F)C1(CCCCN2CCN(c3cccc(Cl)c3)CC2)c2ccccc2-c2ccccc21` [Example 5, 9-{4-[4-(3-Chloro-phenyl)-piperazin-1-yl]-butyl}-9H-fluorene-9-carboxylic acid-(2,2,2-trifluoroethyl)-amide] returned a melting point of 122 °C.

Molecule `O=C(NCC(F)(F)F)C1(CCCCN2CCN(c3ccc(OCc4ccccc4)cc3)CC2)c2ccccc2-c2ccccc21` [Example 6, 9-{4-[4-(4-Benzyloxy-phenyl)-piperazin-1-yl]-butyl}-9H-fluorene-9-carboxylic acid-(2,2,2-trifluoroethyl)-amide] came in with a melting point of 180 °C.

Molecule `O=C(NCC(F)(F)F)C1(CCCCN2CCN(c3ccc(C(F)(F)F)cc3)CC2)c2ccccc2-c2ccccc21` [Example 7, 9-{4-[4-(4-Trifluoromethyl-phenyl)-piperazin-1-yl]-butyl}-9H-fluorene-9-carboxylic acid-(2,2,2-trifluoroethyl)-amide] came in with a melting point of 176 °C.

Molecule `O=C(NCC(F)(F)F)C1(CCCCN2CCN(c3ccc(F)cc3)CC2)c2ccccc2-c2ccccc21` [Example 9, 9-{4-[4-(4-Fluorophenyl)-piperazin-1-yl]-butyl}-9H-fluorene-9-carboxylic acid-(2,2,2-trifluoroethyl)-amide] had a melting point of 116 to 117 °C.

Turning to `O=C(NCC(F)(F)F)C1(CCCCN2CCN(c3ccc(Cl)c(C(F)(F)F)c3)CC2)c2ccccc2-c2ccccc21` [Example 10, 9-{4-[4-(4-Chloro-3-trifluoromethyl-phenyl)-piperazin-1-yl]-butyl}-9H-fluorene-9-carboxylic acid-(2,2,2-trifluoroethyl)-amide], the melting point stood at 96 °C.

Turning to `O=C(NCC(F)(F)F)C1(CCCCN2CCN(c3ccc(Cl)c(Cl)c3)CC2)c2ccccc2-c2ccccc21` [Example 12, 9-{4-[4-(3,4-dichlorophenyl)-piperazin-1-yl]-butyl}-9H-fluorene-9-carboxylic acid-(2,2,2-trifluoroethyl)-amide], the melting point stood at 122 °C.

Molecule `COc1ccc(N2CCN(CCCCC3(C(=O)NCC(F)(F)F)c4ccccc4-c4ccccc43)CC2)cc1` [Example 13, 9-{4-[4-(4-methoxy-phenyl)-piperazin-1-yl]-butyl}-9H-fluorene-9-carboxylic acid-(2,2,2-trifluoroethyl)-amide] displayed a melting point of 120 °C.

The molecule `O=C(NCC(F)(F)F)C1(CCCCN2CCN(c3ccc([N+](=O)[O-])cc3)CC2)c2ccccc2-c2ccccc21` [Example 17, 9-{4-[4-(4-nitro-phenyl)-piperazin-1-yl]-butyl}-9H-fluorene-9-carboxylic acid-(2,2,2-trifluoroethyl)-amide] registered a melting point of 146 °C.

Consider `O=C(NCC(F)(F)F)C1(CCCCN2CCN(c3ccccn3)CC2)c2ccccc2-c2ccccc21` [Example 20, 9-{4-[4-Pyridin-2-yl-piperazin-1-yl]-butyl}-9H-fluorene-9-carboxylic acid-(2,2,2-trifluoroethyl)-amide], for which the melting point stood at 123 °C.

In turn, `Cc1cccc(N2CCN(CCCCC3(C(=O)NCC(F)(F)F)c4ccccc4-c4ccccc43)CC2)n1` [Example 25, 9-{4-[4-(6-methyl-pyridin-2-yl)-piperazin-1-yl]-butyl}-9H-fluorene-9-carboxylic acid-(2,2,2-trifluoroethyl)-amide] showed a melting point of 85 to 87 °C.

Molecule `Cc1cccc(N2CCN(CCCCC3(C(=O)NCc4ccc(F)cc4)c4ccccc4-c4ccccc43)CC2)n1` [Example 26, 9-{4-[4-(6-methyl-pyridin-2-yl)-piperazin-1-yl]-butyl}-9H-fluorene-9-carboxylic acid-4-fluorobenzyl-amide] yielded a melting point of 96 to 97 °C.

`O=C(NCC(F)(F)F)C1(CCCCN2CCN(c3ccc(C(F)(F)F)cn3)CC2)c2ccccc2-c2ccccc21` [Example 27, 9-{4-[4-(5-trifluoromethyl-pyridin-2-yl)-piperazin-1-yl]-butyl}-9H-fluorene-9-carboxylic acid-(2,2,2-trifluoroethyl)-amide] registered a melting point of 147 to 149 °C.

As to `O=C(NCC(F)(F)F)C1(CCCCN2CCN(c3cccc(-c4ccccc4)n3)CC2)c2ccccc2-c2ccccc21` [Example 28, 9-{4-[4-(6-phenyl-pyridin-2-yl)-piperazin-1-yl]-butyl}-9H-fluorene-9-carboxylic acid-(2,2,2-trifluoroethyl)-amide], the melting point was found to be 63 °C.

`O=C(NCC(F)(F)F)C1(CCCCN2CCN(c3cc(-c4ccccc4)ccn3)CC2)c2ccccc2-c2ccccc21` [Example 29, 9-{4-[4-(4-phenyl-pyridin-2-yl)-piperazin-1-yl]-butyl}-9H-fluorene-9-carboxylic acid-(2,2,2-trifluoroethyl)-amide] returned a melting point of 59 °C.

Take `COc1cccc(N2CCN(CCCCC3(C(=O)NCC(F)(F)F)c4ccccc4Oc4ccccc43)CC2)n1` [Example 35, 9-{4-[4-(6-methoxy-pyridin-2-yl)-piperazin-1-yl]-butyl}-9H-xanthene-9-carboxylic acid-(2,2,2-trifluoroethyl)-amide]: the melting point was 122 °C.

The molecule `COc1cccc(N2CC(C)N(CCCCC3(C(=O)NCC(F)(F)F)c4ccccc4-c4ccccc43)C(C)C2)n1` (centres unmarked) [Example 36, 9-{4-[4-(6-methoxy-pyridin-2-yl)-2,6-dimethyl-piperazin-1-yl]-butyl}-9H-fluorene-9-carboxylic acid-(2,2,2-trifluoroethyl)-amide] registered a melting point of 122 °C.

Regarding `COc1cccc(N2CC(C)N(CCCCC3(C(=O)NCc4ccc(F)cc4)c4ccccc4-c4ccccc43)C(C)C2)n1` (centres unmarked) [Example 37, 9-{4-[4-(6-methoxy-pyridin-2-yl)-2,6-dimethyl-piperazin-1-yl]-butyl}-9H-fluorene-9-carboxylic acid-4-fluorobenzyl-amide], the melting point fell in the range of 78 to 79 °C.
